Values of other authors, collected in patent US20050026902A1, “Methods and compositions for the treatment or prevention of human immunodeficiency virus and related conditions using cyclooxygenase-2 selective inhibitors and antiviral agents” (priority 2003, published 2005).
Like-named read-outs stand apart in the source and are kept apart here.

How the values were obtained:
[1] = human, in vivo, po
[2] = human, in vivo, po; remark: listed apart in the source
[3] = human, in vivo
[4] = molecular target: HIV-1 RT from the HxB2 clone (RT-SHIV) (Human immunodeficiency virus type 1 group M subtype B, UniProt P04585); details: in vitro tests
[5] = test system: RT-SHIV; details: in vitro tests

| Food Effect [1] | Food Effect [2] | Food Effect [3] | Compound | also measured |
| --- | --- | --- | --- | --- |
|  | Take with food if possible |  | CC(C)c1nc(CN(C)C(=O)N[C@H](C(=O)N[C@@H](Cc2ccccc2)C[C@H](O)[C@H](Cc2ccccc2)NC(=O)OCc2cncs2)C(C)C)cs1 [Ritonavir, ritonavir] |  |
| None |  |  | Cc1cn([C@H]2C=C[C@@H](CO)O2)c(=O)[nH]c1=O [Stavudine] |  |
| None |  |  | Nc1ccn([C@H]2CC[C@@H](CO)O2)c(=O)n1 [Zalcitabine] |  |
| None |  |  | Cc1cn([C@H]2C[C@H](N=[N+]=[N-])[C@@H](CO)O2)c(=O)[nH]c1=O [Zidovudine] |  |

The remaining lines, values behind:

| Compound | Food Effect [1] | Food Effect [2] | Food Effect [3] | also measured |
| --- | --- | --- | --- | --- |
| Nc1nc(NC2CC2)c2ncn([C@H]3C=C[C@@H](CO)C3)c2n1 [Abacavir] | None |  |  |  |
| CC(C)CN(C[C@@H](O)[C@H](Cc1ccccc1)NC(=O)O[C@H]1CCOC1)S(=O)(=O)c1ccc(N)cc1 [Amprenavir] |  | Avoid taking |  |  |
| CC(C)Nc1cccnc1N1CCN(C(=O)c2cc3cc(NS(C)(=O)=O)ccc3[nH]2)CC1 [Delavirdine] |  |  | None |  |
| O=C1Nc2ccc(Cl)cc2[C@@](C#CC2CC2)(C(F)(F)F)O1 [Efavirenz] |  |  | Avoid taking |  |
| Cc1c(O)cccc1C(=O)N[C@@H](CSc1ccccc1)[C@H](O)CN1C[C@H]2CCCC[C@H]2C[C@H]1C(=O)NC(C)(C)C [Nelfinavir, nelfinavir] |  | Take with food if possible |  |  |
| Cc1ccnc2c1NC(=O)c1cccnc1N2C1CC1 [Nevirapine, nevirapine] |  |  | None | inhibition of the RT activity of RT-SHIV [4]: could inhibit; inhibition of replication of RT-SHIV [5]: could inhibit |
